Test results from article PMC4698308, “A new amino acid substitution (Ala-205-Phe) in acetolactate synthase (ALS) confers broad spectrum resistance to ALS-inhibiting herbicides” (Planta, 2015).
Where two headings read alike, the source gives them in different places.

Tests used:
[1] = tested on: recombinant Arabidopsis thaliana ALS variant A205V; assay type: biochemical; conditions: IC50 mutant divided by IC50 sensitive ALS; max inhibitor concentration 1.00 × 10^−04 M
Procedure: (§1) Effects of SNPs identified in sequencing analysis on ALS activity were studied using A. thaliana. The ALS gene from A. thaliana and derivatives thereof were de novo synthesized and subcloned into pET-24d(+) (Life Technologies. Grand Island, NY, USA) using NcoI and XhoI restriction sites. Protein constructs contained an 85 amino acid N-terminal deletion (chloroplast transit peptide) and the addition of an N-terminal Hexa-histidine tag to facilitate purification.
(§2) Lysis was performed by at least two passes through a fluidizer, followed by centrifuging at 80000×g for 30 min at 4 °C. […] Fractions containing ALS protein were pooled and stored at −20 °C.
(§3) Inhibitors, purchased from Sigma as Pestanal standards (Sigma-Aldrich, Deisenhofen, Germany), were dissolved in DMSO and added to the reaction mixture. Inhibitors evaluated included imidazolinone, sulfonylurea, triazolopyrimidines, sulfonylamino-carbonyl- triazolinones, and pyrimidinyl (thio) benzoate herbicides. The reaction mixture was incubated at 30 °C for 60 min and stopped with 70 µl of H2SO4 (3 M). The reaction was then heated to 56 °C for 15 min to convert acetolactate into acetoin. […] For each inhibitor, resistance factors were calculated by dividing IC50 values for mutant and sensitive ALS.

[2] = tested on: recombinant Arabidopsis thaliana ALS variant A205F; assay type: biochemical; conditions: IC50 mutant divided by IC50 sensitive ALS; max inhibitor concentration 1.00 × 10^−04 M
Procedure: as §1, §2, §3

[3] = tested on: recombinant Arabidopsis thaliana ALS variant W574L; assay type: biochemical; conditions: IC50 mutant divided by IC50 sensitive ALS; max inhibitor concentration 1.00 × 10^−04 M
Procedure: as §1, §2, §3

[4] = tested on: annual bluegrass (Poa annua L.); test: Whole plant non-target site resistance experiment with P450 inhibitors malathion or PBO (control 21 days after treatment); assay type: in vivo; conditions: for Annual bluegrass control S: susceptible (S)
Procedure: Additional experiments were conducted during March–April 2015 to determine if non-target site based mechanisms conferred resistance to ALS inhibitors in our annual bluegrass population, POAAN-R3. Plants (RP6, RP7, and S) were cultured in plastic conical containers as previously described and allowed to acclimate to the glasshouse for 18 days prior to initiating two experiments.
In the first experiment, resistant (RP6, RP7) and susceptible (S) plants were treated with foramsulfuron at 29 g ha^−1, trifloxysulfuron (Monument. Syngenta Professional Products. Greensboro, NC, USA) at 27.8 g ha^−1, imazaquin (Image. BASF Corporation. Research Triangle Park, NC) at 27.5 g ha^−1, or bispyribac-sodium (Velocity. Valent USA Corporation. Walnut Creek, CA, USA) at 70 g ha^−1. All herbicides were applied alone or in combination with either malathion (Spectrum Group. St. Louis, MO, USA) at 1000 g ha^−1 or piperonyl butoxide (Sigma Aldrich. St. Louis, MO, USA) at 2100 g ha^−1. Malathion and piperonyl butoxide (PBO) inhibit cytochrome P450 monooxygenases involved in metabolism of ALS inhibiting herbicides and are commonly used at the application rates tested herein to evaluate non-target site based resistance mechanisms in weeds (Burnet et al. [1994]; Christopher et al. [1992]; Yu and Powles [2014b]; Rao et al. [1995]). All herbicides were mixed in water carrier and included non-ionic surfactant at 0.25 % v/v. Malathion and PBO were mixed with methanol and de-ionized water (50:50) and applied 60 min prior to herbicide application using a previously described enclosed spray chamber on 13 February 2015.
Annual bluegrass control was visually assessed on a 0 (i.e., no control) to 100 % (i.e., complete kill) scale relative to the non-treated 21 days after treatment. After all control data had been collected, aboveground biomass was harvested from each plastic conical container at the soil line using scissors, dried at 100 °C, and weighed. Treatments were arranged as a 3 × 5 × 3 factorial with three plant selections (RP6, RP7, S), five herbicides (foramsulfuron, trifloxysulfuron, imazaquin, bispyribac-sodium, non-treated) and three P450 inhibitor treatments (malathion, PBO, non-treated) in a completely randomized design with four replications and repeated in separate glasshouses during February 2015.

[5] = target: T1, recombinant Arabidopsis thaliana ALS wild-type enzyme (WT—sensitive) (Arabidopsis thaliana, UniProt P17597); test: biochemical
T1 construct: Protein constructs contained an 85 amino acid N-terminal deletion (chloroplast transit peptide); Hexa-histidine tag (N); made in house
Procedure: as §1, §2, §3

[6] = tested on: annual bluegrass population POAAN-R3; set-up: method as in Brosnan et al. [2015]; conditions: ref Brosnan et al. [2015], cited from earlier work
[7] = tested on: annual bluegrass (Poa annua L.); test: Whole plant confirmation of target-site resistance (visual control and dry biomass 28 days after treatment); assay type: in vivo
Procedure: Progeny of all POAAN-R3 plants subjected to genetic sequencing (RP1–RP8) were surface seeded into separate 10.2 × 10.2 cm greenhouse pots (Dillen Products/Myers Industries, Inc. Middlefield, OH, USA.) filled with a peat moss growing medium (ProMix BX Mycorrhizae. Premier Tech Horticulture, Quakertown, PA, USA) on 5 January 2015. The susceptible annual bluegrass population (S) included in our sequencing analysis was also seeded in the same fashion.
After seeding, pots were placed inside a growth chamber (Conviron A1000. Controlled Environments Inc, Hendersonville, NC) configured to provide 14 h day at 19 °C and a 10 h night at 10 °C. Light intensity inside the chamber averaged 296 μmol m^−2 s^−1. Irrigation was applied to each pot daily using distilled water and a misting nozzle. Annual bluegrass emergence was first noted on 16 January 2015. Plants remained inside the growth chamber until 26 January 2015. On this date, seedlings of each plant (RP1–RP8, S) were transplanted into individual 164 cm^3 plastic conical containers (SC10 Super Cell Cone-tainer. Stuewe and Sons. Tangent, OR 97389) filled with Sequatchie silt loam (fine-loamy, siliceous, semiactive, thermic humic Hapludult) measuring 6.2 in soil pH and 2.1 % in organic matter content. Transplants were replicated such that 32 plastic conical containers were created for each annual bluegrass plant analyzed in previous experiments (RP1–RP8, S). Immediately after transplanting, plastic conical containers were placed in a glasshouse located at the University of Tennessee (Knoxville, TN, USA; 35.56, 83.56). Peak light intensity in this glasshouse averaged 714 μmol m^−2 s^−1 with day/night temperatures averaging 27/17 °C. Irrigation was applied daily using an overhead misting system and plants were not clipped prior to initiating this study.
Plants were allowed to acclimate to this glasshouse environment for 10 days prior to being treated with foramsulfuron (Revolver. Bayer Environmental Sciences. Research Triangle Park, NC, USA) at 29 g ha^−1, imazamox (Clearcast. BASF Corporation. Research Triangle Park, NC) at 140 g ha^−1, or simazine (Princep 4L. Syngenta Professional Products. Greensboro, NC) at 1120 g ha^−1. Per label recommendations, imazamox and simazine treatments included a non-ionic surfactant (Activator-90. Loveland Products Inc. Greeley, CO, USA) at 0.25 % v/v. All treatments were applied in an enclosed spray chamber (Generation III track sprayer. DeVries Manufacturing, Hollandale, MN, USA) using a water carrier at 215 L ha^−1 through an 8004 EVS nozzle (TeeJet, Technologies, Spraying Systems Co., Glendale Heights, IL, USA). These herbicide treatments were selected to confirm results of genetic sequencing that RP1–RP8 were resistant to sulfonylurea, imidazolinone, and photosystem II inhibiting herbicides. A non-treated control treatment was included with each resistant (RP1–RP8) and susceptible (S) plant for comparison. Herbicides were applied on 5 February 2015 when plants were at a two-to-three leaf stage, prior to annual bluegrass tiller formation.
Annual bluegrass control was visually assessed on a 0 (i.e., no control) to 100 % (i.e., complete kill) scale relative to the non-treated 28 days after treatment. After all control data had been collected, aboveground biomass was harvested from each plastic conical container at the soil line using scissors, dried at 100 °C for 3 days, and weighed.
Treatments were arranged as a 9 × 4 factorial with nine plant selections (i.e., RP1–RP8, S) and four herbicide treatments (i.e., foramsulfuron, imazamox, simazine, non-treated) in a completely randomized design with four replications and repeated in time and space during February 2015. Plants were the same age during both experimental runs.

[8] = RP6, herbicide alone, foramsulfuron 29, trifloxysulfuron 27.8, imazaquin 27.5, bispyribac-sodium 70 g ha^−1
[9] = RP6, herbicide with PBO 2100 g ha^−1 applied 60 min prior
[10] = RP6, herbicide with malathion 1000 g ha^−1 applied 60 min prior
[11] = RP7, herbicide alone, foramsulfuron 29, trifloxysulfuron 27.8, imazaquin 27.5, bispyribac-sodium 70 g ha^−1
[12] = RP7, herbicide with PBO 2100 g ha^−1 applied 60 min prior
[13] = RP7, herbicide with malathion 1000 g ha^−1 applied 60 min prior
[14] = herbicide alone, foramsulfuron 29, trifloxysulfuron 27.8, imazaquin 27.5, bispyribac-sodium 70 g ha^−1
[15] = herbicide with PBO 2100 g ha^−1 applied 60 min prior
[16] = herbicide with malathion 1000 g ha^−1 applied 60 min prior

T1 sequence (P17597 86-670): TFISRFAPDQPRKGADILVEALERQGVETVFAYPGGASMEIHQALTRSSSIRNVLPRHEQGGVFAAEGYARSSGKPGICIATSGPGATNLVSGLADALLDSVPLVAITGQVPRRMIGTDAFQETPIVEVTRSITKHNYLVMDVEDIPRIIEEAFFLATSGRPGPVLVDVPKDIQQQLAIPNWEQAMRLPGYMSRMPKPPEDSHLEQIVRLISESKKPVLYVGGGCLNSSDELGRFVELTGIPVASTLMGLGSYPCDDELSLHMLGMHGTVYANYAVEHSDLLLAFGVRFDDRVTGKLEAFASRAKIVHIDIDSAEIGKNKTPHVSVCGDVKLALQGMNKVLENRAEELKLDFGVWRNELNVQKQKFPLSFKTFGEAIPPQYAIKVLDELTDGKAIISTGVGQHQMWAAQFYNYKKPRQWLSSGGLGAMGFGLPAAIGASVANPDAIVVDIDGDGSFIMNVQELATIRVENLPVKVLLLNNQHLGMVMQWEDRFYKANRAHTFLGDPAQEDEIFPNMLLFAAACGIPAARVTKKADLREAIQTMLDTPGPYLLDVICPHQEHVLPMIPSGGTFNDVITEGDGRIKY

For `COc1cc(OC)nc(NC(=O)NS(=O)(=O)c2ncccc2OCC(F)(F)F)n1` [Trifloxysulfuron], the “Resistance factor A205V” value [1] was 9, the “Resistance factor A205F” value [2] was 2983 and the “Resistance factor W574L” value [3] was 6447. The “Annual bluegrass control RP6” value [4, 8] was 38%, the “Annual bluegrass control RP6” value [4, 9] was 55% and the “Annual bluegrass control RP6” value [4, 10] was 49%. The “Annual bluegrass control RP7” value [4, 11] was 22%, the “Annual bluegrass control RP7” value [4, 12] was 17% and the “Annual bluegrass control RP7” value [4, 13] was 28%. The “Annual bluegrass control S” value [4, 14] was 94%, the “Annual bluegrass control S” value [4, 15] was 94% and the “Annual bluegrass control S” value [4, 16] was 92%. For the same molecule, the IC50 ([5]; concentration for 50 % inhibition of WT enzyme, max inhibitor concentration 1.00 × 10^−04 M, read-out: WT sensitivity [IC50]) was 5.9 nM and the “control of POAAN-R3” value ([6]; rates as high as 223 g ha^−1) was no more than 40%.

For `CC(C)C1(C)N=C(c2nc3ccccc3cc2C(=O)O)NC1=O` (stereo not shown) [Imazaquin], the “Resistance factor A205V” value [1] was 36, the “Resistance factor A205F” value [2] was 19 and the “Resistance factor W574L” value [3] was 65. The “Annual bluegrass control RP6” value [4, 8] was 36%, the “Annual bluegrass control RP6” value [4, 9] was 24% and the “Annual bluegrass control RP6” value [4, 10] was 32%. The “Annual bluegrass control RP7” value [4, 11] was 11%, the “Annual bluegrass control RP7” value [4, 12] was 9% and the “Annual bluegrass control RP7” value [4, 13] was 8%. The “Annual bluegrass control S” value [4, 14] was 53%, the “Annual bluegrass control S” value [4, 15] was 71% and the “Annual bluegrass control S” value [4, 16] was 64%. The IC50 [5] was 1550 nM.

For `CCNc1nc(Cl)nc(NCC)n1` [Simazine], the “Annual bluegrass biomass RP1” value ([7]; RP1, aboveground dry biomass 28 days after treatment, foramsulfuron 29, imazamox 140, simazine 1120 g ha^-1) was 124 % of nontreated control, the “Annual bluegrass control RP1” value ([7]; RP1 plants, 28 days after treatment, 2 to 3 leaf stage, foramsulfuron 29, imazamox 140, simazine 1120 g ha^−1) was 0% and the “Annual bluegrass biomass RP2” value ([7]; RP2, aboveground dry biomass 28 days after treatment, foramsulfuron 29, imazamox 140, simazine 1120 g ha^-1) was 105 % of nontreated control. For the same molecule, the “Annual bluegrass control RP2” value ([7]; RP2 plants, 28 days after treatment, 2 to 3 leaf stage, foramsulfuron 29, imazamox 140, simazine 1120 g ha^−1) was 0%, the “Annual bluegrass biomass RP3” value ([7]; RP3, aboveground dry biomass 28 days after treatment, foramsulfuron 29, imazamox 140, simazine 1120 g ha^-1) was 140 % of nontreated control and the “Annual bluegrass control RP3” value ([7]; RP3 plants, 28 days after treatment, 2 to 3 leaf stage, foramsulfuron 29, imazamox 140, simazine 1120 g ha^−1) was 0%. For the same molecule, the “Annual bluegrass biomass RP4” value ([7]; RP4, aboveground dry biomass 28 days after treatment, foramsulfuron 29, imazamox 140, simazine 1120 g ha^-1) was 95 % of nontreated control, the “Annual bluegrass control RP4” value ([7]; RP4 plants, 28 days after treatment, 2 to 3 leaf stage, foramsulfuron 29, imazamox 140, simazine 1120 g ha^−1) was 0% and the “Annual bluegrass biomass RP5” value ([7]; RP5, aboveground dry biomass 28 days after treatment, foramsulfuron 29, imazamox 140, simazine 1120 g ha^-1) was 82 % of nontreated control. For the same molecule, the “Annual bluegrass control RP5” value ([7]; RP5 plants, 28 days after treatment, 2 to 3 leaf stage, foramsulfuron 29, imazamox 140, simazine 1120 g ha^−1) was 0%, the “Annual bluegrass biomass RP6” value ([7]; RP6, aboveground dry biomass 28 days after treatment, foramsulfuron 29, imazamox 140, simazine 1120 g ha^-1) was 0 % of nontreated control and the “Annual bluegrass control RP6” value ([7]; RP6 plants, 28 days after treatment, 2 to 3 leaf stage, foramsulfuron 29, imazamox 140, simazine 1120 g ha^−1) was 100%. For the same molecule, the “Annual bluegrass biomass RP7” value ([7]; RP7, aboveground dry biomass 28 days after treatment, foramsulfuron 29, imazamox 140, simazine 1120 g ha^-1) was 99 % of nontreated control, the “Annual bluegrass control RP7” value ([7]; RP7 plants, 28 days after treatment, 2 to 3 leaf stage, foramsulfuron 29, imazamox 140, simazine 1120 g ha^−1) was 0% and the “Annual bluegrass biomass RP8” value ([7]; RP8, aboveground dry biomass 28 days after treatment, foramsulfuron 29, imazamox 140, simazine 1120 g ha^-1) was 101 % of nontreated control. The “Annual bluegrass control RP8” value ([7]; RP8 plants, 28 days after treatment, 2 to 3 leaf stage, foramsulfuron 29, imazamox 140, simazine 1120 g ha^−1) was 0%, the “Annual bluegrass control S” value ([7]; susceptible (S) plants, 28 days after treatment, 2 to 3 leaf stage, foramsulfuron 29, imazamox 140, simazine 1120 g ha^−1) was 98% and the “Annual bluegrass biomass S” value ([7]; susceptible (S), aboveground dry biomass 28 days after treatment, foramsulfuron 29, imazamox 140, simazine 1120 g ha^-1) was 5 % of nontreated control. For the same molecule, the “control of POAAN-R3” value ([6]; 140 to 9000 g ha^−1) was no more than 20%.
